This note sets out measurements from US10787452B2 (Vertex Pharmaceuticals Incorporated, priority 2012, dated 2020).

This assay deals with HCT116 colorectal cancer cells. The experiment in a line: Cisplatin sensitization assay (96 h cell viability MTS).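 Also: compound concentration needed to lower the Cisplatin-alone IC50 by a set fold.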 It is filed as cell-based. Particulars: 96 h MTS, compound plus Cisplatin. An outline of the steps: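 Simultaneous addition of compound and cisplatin (2-fold series, top 10 μM final, full matrix), followed by 96 h culture at 37° C/5% CO2 and a 1 h MTS viability read.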

For `Nc1nn2cc(F)cnc2c1C(=O)Nc1cncc(F)c1N1CCN(S(=O)(=O)C2CCOCC2)CC1` [I-N-158, 2-amino-6-fluoro-N-(5-fluoro-4-(4-((tetrahydro-2H-pyran-4-yl)sulfonyl)piperazin-1-yl)pyridin-3-yl)pyrazolo[1,5-a]pyrimidine-3-carboxamide], the “Cisplatin Sensitization Assay” value was “+++ (Compounds with a Cisplatin sensitization value of <0.02 μM are marked with “+++.”)”. The same measure for `N#CCc1cnc2c(C(=O)Nc3cnccc3N3CCNCC3)c(N)nn2c1` [I-N-89, 2-amino-6-(cyanomethyl)-N-(4-(piperazin-1-yl)pyridin-3-yl)pyrazolo[1,5-a]pyrimidine-3-carboxamide]: “++ (Compounds with a Cisplatin sensitization value >0.02 μM but <0.2 μM are marked with “++.”)”. In the case of `CC(C)(C)NC(=O)C1CCN(c2c(F)cncc2NC(=O)c2c(N)nn3cc(F)cnc23)CC1` [I-G-19, 2-amino-N-(4-(4-(tert-butylcarbamoyl)piperidin-1-yl)-5-fluoropyridin-3-yl)-6-fluoropyrazolo[1,5-a]pyrimidine-3-carboxamide] it was “++ (Compounds with a Cisplatin sensitization value >0.02 μM but <0.2 μM are marked with “++.”)”; in that of `Nc1nn2cc(F)cnc2c1C(=O)Nc1cncc(F)c1N1CCC(CN2CCCC2=O)CC1` [I-N-213, 2-amino-6-fluoro-N-(5-fluoro-4-(4-((2-oxopyrrolidin-1-yl)methyl)piperidin-1-yl)pyridin-3-yl)pyrazolo[1,5-a]pyrimidine-3-carboxamide], “+++ (Compounds with a Cisplatin sensitization value of <0.02 μM are marked with “+++.”)”. In the case of `Nc1nn2cc(Cl)cnc2c1C(=O)Nc1cncc(F)c1N1CCN(C2COC2)CC1` [I-N-117, 2-amino-6-chloro-N-(5-fluoro-4-(4-(oxetan-3-yl)piperazin-1-yl)pyridin-3-yl)pyrazolo[1,5-a]pyrimidine-3-carboxamide] it was “+++ (Compounds with a Cisplatin sensitization value of <0.02 μM are marked with “+++.”)”; in that of `Nc1nn2cc(F)cnc2c1C(=O)Nc1cnccc1-n1cnc(C(F)(F)F)c1` [I-N-27, 2-amino-6-fluoro-N-(4-(4-(trifluoromethyl)-1H-imidazol-1-yl)pyridin-3-yl)pyrazolo[1,5-a]pyrimidine-3-carboxamide], “++ (Compounds with a Cisplatin sensitization value >0.02 μM but <0.2 μM are marked with “++.”)”; in that of `Cc1ccnnc1-c1ccncc1NC(=O)c1c(N)nn2cc(F)cnc12` [I-C-33, 2-amino-6-fluoro-N-(4-(4-methylpyridazin-3-yl)pyridin-3-yl)pyrazolo[1,5-a]pyrimidine-3-carboxamide], “+ (Compounds with a Cisplatin sensitization value >0.2 μM but <5 μM are marked with “+.”)”. For the compound `Nc1nn2cc(F)cnc2c1C(=O)Nc1cncc(F)c1N1CCC(C(=O)N2CCN3CCC2C3)CC1` (stereo not shown) [I-G-46, N-(4-(4-(1,4-diazabicyclo[3.2.1]octane-4-carbonyl)piperidin-1-yl)-5-fluoropyridin-3-yl)-2-amino-6-fluoropyrazolo[1,5-a]pyrimidine-3-carboxamide], the “Cisplatin Sensitization Assay” value is reported as “+++ (Compounds with a Cisplatin sensitization value of <0.02 μM are marked with “+++.”)”.

Take `CN1CCc2c(cncc2NC(=O)c2c(N)nn3cc(F)cnc23)C1` [I-C-8, 2-amino-6-fluoro-N-(7-methyl-5,6,7,8-tetrahydro-2,7-naphthyridin-4-yl)pyrazolo[1,5-a]pyrimidine-3-carboxamide]: the “Cisplatin Sensitization Assay” value is on record as “+ (Compounds with a Cisplatin sensitization value >0.2 μM but <5 μM are marked with “+.”)”. In the case of `Cc1nnccc1-c1ccncc1NC(=O)c1c(N)nn2cc(F)cnc12` [I-C-31, 2-amino-6-fluoro-N-(4-(3-methylpyridazin-4-yl)pyridin-3-yl)pyrazolo[1,5-a]pyrimidine-3-carboxamide] it was “+++ (Compounds with a Cisplatin sensitization value of <0.02 μM are marked with “+++.”)”. In the case of `COC1(C)CN(C(=O)C2CCN(c3c(F)cncc3NC(=O)c3c(N)nn4cc(F)cnc34)CC2)C1` [I-G-75, 2-amino-6-fluoro-N-(5-fluoro-4-(4-(3-methoxy-3-methylazetidine-1-carbonyl)piperidin-1-yl)pyridin-3-yl)pyrazolo[1,5-a]pyrimidine-3-carboxamide] it was “+++ (Compounds with a Cisplatin sensitization value of <0.02 μM are marked with “+++.”)”; in that of `Nc1nn2cc(Cl)cnc2c1C(=O)Nc1cnccc1N1CCN(C2CCC2)CC1` [I-N-48, 2-amino-6-chloro-N-(4-(4-cyclobutylpiperazin-1-yl)pyridin-3-yl)pyrazolo[1,5-a]pyrimidine-3-carboxamide], “++ (Compounds with a Cisplatin sensitization value >0.02 μM but <0.2 μM are marked with “++.”)”; in that of `Nc1nn2cc(F)cnc2c1C(=O)Nc1cnccc1C1CCN(C(=O)C2CC2)CC1` [I-C-70, 2-amino-N-(4-(1-(cyclopropanecarbonyl)piperidin-4-yl)pyridin-3-yl)-6-fluoropyrazolo[1,5-a]pyrimidine-3-carboxamide], “+++ (Compounds with a Cisplatin sensitization value of <0.02 μM are marked with “+++.”)”. With `CN1CC(N2CCN(C(=O)C3CCN(c4c(F)cncc4NC(=O)c4c(N)nn5cc(F)cnc45)CC3)CC2)C1` [I-G-96, 2-amino-6-fluoro-N-(5-fluoro-4-(4-(4-(1-methylazetidin-3-yl)piperazine-1-carbonyl)piperidin-1-yl)pyridin-3-yl)pyrazolo[1,5-a]pyrimidine-3-carboxamide], the “Cisplatin Sensitization Assay” value is reported as “+++ (Compounds with a Cisplatin sensitization value of <0.02 μM are marked with “+++.”)”. Consider `Nc1nn2cc(F)cnc2c1C(=O)Nc1cncc(F)c1N1CCC(C(=O)N2CC(F)(F)C2)CC1` [I-G-73, 2-amino-N-(4-(4-(3,3-difluoroazetidine-1-carbonyl)piperidin-1-yl)-5-fluoropyridin-3-yl)-6-fluoropyrazolo[1,5-a]pyrimidine-3-carboxamide], for which the “Cisplatin Sensitization Assay” value is given as “+++ (Compounds with a Cisplatin sensitization value of <0.02 μM are marked with “+++.”)”. `Nc1nn2cc(Cl)cnc2c1C(=O)Nc1cnccc1OCCO` [I-O-66, 2-amino-6-chloro-N-(4-(2-hydroxyethoxy)pyridin-3-yl)pyrazolo[1,5-a]pyrimidine-3-carboxamide]: the “Cisplatin Sensitization Assay” value is listed as “+ (Compounds with a Cisplatin sensitization value >0.2 μM but <5 μM are marked with “+.”)”.

Consider `CN1CCN2CCN(c3c(F)cncc3NC(=O)c3c(N)nn4cc(F)cnc34)CC2C1=O` (stereo not shown) [I-N-240, 2-amino-6-fluoro-N-(5-fluoro-4-(8-methyl-9-oxohexahydro-1H-pyrazino[1,2-a]pyrazin-2(6H)-yl)pyridin-3-yl)pyrazolo[1,5-a]pyrimidine-3-carboxamide], for which the “Cisplatin Sensitization Assay” value is “++ (Compounds with a Cisplatin sensitization value >0.02 μM but <0.2 μM are marked with “++.”)”. In the case of `Nc1nn2cc(Cl)cnc2c1C(=O)Nc1cnccc1OC1CNC1` [I-O-73, 2-amino-N-(4-(azetidin-3-yloxy)pyridin-3-yl)-6-chloropyrazolo[1,5-a]pyrimidine-3-carboxamide] it was “+ (Compounds with a Cisplatin sensitization value >0.2 μM but <5 μM are marked with “+.”)”; in that of `CN1CCC[C@@H]1COc1ccncc1NC(=O)c1c(N)nn2cc(Cl)cnc12` [I-O-49, (R)-2-amino-6-chloro-N-(4-((1-methylpyrrolidin-2-yl)methoxy)pyridin-3-yl)pyrazolo[1,5-a]pyrimidine-3-carboxamide], “+ (Compounds with a Cisplatin sensitization value >0.2 μM but <5 μM are marked with “+.”)”.

For the compound `CN1CCN2CCN(c3ccncc3NC(=O)c3c(N)nn4cc(Cl)cnc34)CC2C1` (stereo not shown) [I-N-61, 2-amino-6-chloro-N-(4-(8-methylhexahydro-1H-pyrazino[1,2-a]pyrazin-2(6H)-yl)pyridin-3-yl)pyrazolo[1,5-a]pyrimidine-3-carboxamide], the “Cisplatin Sensitization Assay” value is listed as “+++ (Compounds with a Cisplatin sensitization value of <0.02 μM are marked with “+++.”)”.

`Cc1ncnn1-c1c(F)cncc1NC(=O)c1c(N)nn2cc(F)cnc12` [I-N-242, 2-amino-6-fluoro-N-(5-fluoro-4-(5-methyl-1H-1,2,4-triazol-1-yl)pyridin-3-yl)pyrazolo[1,5-a]pyrimidine-3-carboxamide]: the “Cisplatin Sensitization Assay” value was “+ (Compounds with a Cisplatin sensitization value >0.2 μM but <5 μM are marked with “+.”)”. Regarding `CN1CCN(CC2CCN(c3c(F)cncc3NC(=O)c3c(N)nn4cc(F)cnc34)CC2)CC1` [I-N-150, 2-amino-6-fluoro-N-(5-fluoro-4-(4-((4-methylpiperazin-1-yl)methyl)piperidin-1-yl)pyridin-3-yl)pyrazolo[1,5-a]pyrimidine-3-carboxamide], the “Cisplatin Sensitization Assay” value is listed as “+++ (Compounds with a Cisplatin sensitization value of <0.02 μM are marked with “+++.”)”. In the case of `Nc1nn2cc(F)cnc2c1C(=O)Nc1cnccc1N1CCN(S(=O)(=O)C2COC2)CC1` [I-N-195, 2-amino-6-fluoro-N-(4-(4-(oxetan-3-ylsulfonyl)piperazin-1-yl)pyridin-3-yl)pyrazolo[1,5-a]pyrimidine-3-carboxamide] it was “+++ (Compounds with a Cisplatin sensitization value of <0.02 μM are marked with “+++.”)”; in that of `Nc1nn2cc(F)cnc2c1C(=O)Nc1cnccc1N1CCN(C2CC2)CC1` [I-N-33, 2-amino-N-(4-(4-cyclopropylpiperazin-1-yl)pyridin-3-yl)-6-fluoropyrazolo[1,5-a]pyrimidine-3-carboxamide], “+ (Compounds with a Cisplatin sensitization value >0.2 μM but <5 μM are marked with “+.”)”. In the case of `Nc1nn2cc(F)cnc2c1C(=O)Nc1cnccc1OC1CCS(=O)(=O)CC1` [I-O-45, 2-amino-N-(4-((1,1-dioxidotetrahydro-2H-thiopyran-4-yl)oxy)pyridin-3-yl)-6-fluoropyrazolo[1,5-a]pyrimidine-3-carboxamide] it was “+++ (Compounds with a Cisplatin sensitization value of <0.02 μM are marked with “+++.”)”.
